The supplement of paper PMC11208160

Assay: recombinant barcode read abundance after kanamycin selection (control-corrected) (log10(CPM+1)); higher = more efficient recombination; sequences stand for … in AGTGCAGAGAAAATCGGCCAGTTTTCTCTGCCTGCAGTCCGCATGCCGT…AGATTTATGCAGCGGACTGCCTTTCTCCCAAAGTGATAAACCGGACAGTATCATGGACCGGTTTTCCCGGTAATCCGTATTTGCAAGGTTGGTTTCACT; site = the 11-nt target
Summary of the method: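 Recombination efficiency draws on barcodes counted at recombinant junctions in a pooled E. coli screen of targets paired with IS621 bridge RNA target-binding loops. The counts were converted to counts per million, averaged and corrected against the chloramphenicol/ampicillin LB agar control, then reported as log10(CPM+1). Selection plates held chloramphenicol/ampicillin/kanamycin with 0.1 mM IPTG, with two replicates per condition.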
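Further: IS621 recombinase and bridge RNA in Escherichia coli cells.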

| Sequence | recombinant barcode read abundance (log10) |
| --- | --- |
| TAGGCTCCTTGGGTTCTAACCTGTTGCCG (site TAGGCTCCTCG) | 0.412 |
| TAGGCTCCTTGGGTTCTAACCTGTTGCCT (site TAAGATCCTAG) | 0.205 |
| TAGGCTCCTTGGGTTCTAACCTGTTGCCT (site TAGGCTCCTAG) | 0 |
| TAGGGGACTTGGGTTCTAACCTGTTGCAA (site CGTCCTGCTAA) | 0.0997 |
| TAGGGGACTTGGGTTCTAACCTGTTGCAA (site TAGGGGACTTT) | 2.27 |
| TAGGTATCTTGGGTTCTAACCTGTTGCAG (site CCTTGTGCTAC) | 0.156 |
| TAGGTATCTTGGGTTCTAACCTGTTGCAG (site TAGGTATCTCT) | 2.01 |
| TAGGTCCCTTGGGTTCTAACCTGTTGCAT (site TAGGTACCTAT) | 0.389 |
| TAGGTCCCTTGGGTTCTAACCTGTTGCAT (site TAGGTCCCTAT) | 1.85 |
| TAGGTCCCTTGGGTTCTAACCTGTTGCAT (site TAGGTGCCTAT) | 0.0967 |
| TAGGTCCCTTGGGTTCTAACCTGTTGCAT (site TAGGTTCCTAT) | 0.228 |
| TAGGTCCCTTGGGTTCTAACCTGTTGCGA (site AAGGTCCCTCC) | 0.0896 |
| TAGGTCCCTTGGGTTCTAACCTGTTGCGA (site TAGGTCCCTTC) | 3.11 |
| TAGTAAGCTTGGGTTCTAACCTGTTGCCT (site TAGTAAGCTAG) | 1.23 |
| TAGTAAGCTTGGGTTCTAACCTGTTGCCT (site TAGTATCCTAG) | 0.088 |
| TAGTACCCTTGGGTTCTAACCTGTTGCAA (site TAGTACCCTAT) | 0.0814 |
| TAGTACCCTTGGGTTCTAACCTGTTGCAA (site TAGTACCCTCT) | 0.104 |
| TAGTACCCTTGGGTTCTAACCTGTTGCAA (site TAGTACCCTGT) | 0.0816 |
| TAGTACCCTTGGGTTCTAACCTGTTGCAA (site TAGTACCCTTT) | 0.801 |
| TAGTACGCTTGGGTTCTAACCTGTTGCAG (site TAGTAAGCTCA) | 0.12 |
| TAGTACGCTTGGGTTCTAACCTGTTGCAG (site TAGTACGCTCT) | 1.8 |
| TAGTACGCTTGGGTTCTAACCTGTTGCTT (site ACACGGCCTCG) | 0.331 |

| Sequence | recombinant barcode read abundance (log10) |
| --- | --- |
| TAGTACGCTTGGGTTCTAACCTGTTGCTT (site TAGTACGCTAA) | 0.848 |
| TAGTACTCTTGGGTTCTAACCTGTTGCTG (site TAGTACTCTAA) | 0.244 |
| TAGTACTCTTGGGTTCTAACCTGTTGCTG (site TAGTACTCTCA) | 1.06 |
| TAGTACTCTTGGGTTCTAACCTGTTGCTG (site TAGTACTCTGA) | 0.053 |
| TAGTACTCTTGGGTTCTAACCTGTTGCTG (site TAGTACTCTTA) | 0.0609 |
| TAGTAGTCTTGGGTTCTAACCTGTTGCAT (site TAGTAGTCTAA) | 0.503 |
| TAGTAGTCTTGGGTTCTAACCTGTTGCAT (site TAGTAGTCTAC) | 1.14 |
| TAGTAGTCTTGGGTTCTAACCTGTTGCAT (site TAGTAGTCTAG) | 0.596 |
| TAGTAGTCTTGGGTTCTAACCTGTTGCAT (site TAGTAGTCTAT) | 2.12 |
| TAGTAGTCTTGGGTTCTAACCTGTTGCTT (site TAGTAGTCTAA) | 1.55 |
| TAGTAGTCTTGGGTTCTAACCTGTTGCTT (site TAGTAGTCTAC) | 0.635 |
| TAGTAGTCTTGGGTTCTAACCTGTTGCTT (site TAGTAGTCTAG) | 0.659 |
| TAGTAGTCTTGGGTTCTAACCTGTTGCTT (site TAGTAGTCTAT) | 1.15 |
| TAGTGATCTTGGGTTCTAACCTGTTGCCT (site TAATGATCTAG) | 0 |
| TAGTGATCTTGGGTTCTAACCTGTTGCCT (site TACTGATCTAG) | 0.072 |
| TAGTGATCTTGGGTTCTAACCTGTTGCCT (site TAGTGATCTAG) | 0.783 |
| TAGTGATCTTGGGTTCTAACCTGTTGCCT (site TATTGATCTAG) | 0.0361 |
| TAGTGGCCTTGGGTTCTAACCTGTTGCTA (site CCTGACTCTAT) | 0 |
| TAGTGGCCTTGGGTTCTAACCTGTTGCTA (site TAGTGGCCTTA) | 0.132 |
| TAGTGGTCTTGGGTTCTAACCTGTTGCTA (site TAGTGGTCTAT) | 0.403 |
| TAGTGGTCTTGGGTTCTAACCTGTTGCTA (site TAGTGGTCTTA) | 1.01 |
